Assay results as given in patent US10370433B2, “Compositions and methods for diagnosis and treatment of cancer” (BIONTECH AG, priority 2015, dated 2019).
Positions of bridges follow the written chain, without caps; N, C: chain ends. Residues, ends and D or L forms follow the SMILES beside them.

Biological target: T1, recombinant human Seprase (rhuSeprase) (Homo sapiens, UniProt Q12884)
T1 construct: named pCEP4-IgKappa-huSeprase-coCHO_26-760aa-H6 and used for the generation of recombinant soluble human Seprase (rhuSeprase); mouse Ig kappa-chain V-J2-C secretion signal (N, cleaved yes); made in house; host or cells: FreeStyle CHO-S cells (transient transfection; purified from supernatant by Ni-chelate and SEC)
T1 sequence (Q12884 26-760): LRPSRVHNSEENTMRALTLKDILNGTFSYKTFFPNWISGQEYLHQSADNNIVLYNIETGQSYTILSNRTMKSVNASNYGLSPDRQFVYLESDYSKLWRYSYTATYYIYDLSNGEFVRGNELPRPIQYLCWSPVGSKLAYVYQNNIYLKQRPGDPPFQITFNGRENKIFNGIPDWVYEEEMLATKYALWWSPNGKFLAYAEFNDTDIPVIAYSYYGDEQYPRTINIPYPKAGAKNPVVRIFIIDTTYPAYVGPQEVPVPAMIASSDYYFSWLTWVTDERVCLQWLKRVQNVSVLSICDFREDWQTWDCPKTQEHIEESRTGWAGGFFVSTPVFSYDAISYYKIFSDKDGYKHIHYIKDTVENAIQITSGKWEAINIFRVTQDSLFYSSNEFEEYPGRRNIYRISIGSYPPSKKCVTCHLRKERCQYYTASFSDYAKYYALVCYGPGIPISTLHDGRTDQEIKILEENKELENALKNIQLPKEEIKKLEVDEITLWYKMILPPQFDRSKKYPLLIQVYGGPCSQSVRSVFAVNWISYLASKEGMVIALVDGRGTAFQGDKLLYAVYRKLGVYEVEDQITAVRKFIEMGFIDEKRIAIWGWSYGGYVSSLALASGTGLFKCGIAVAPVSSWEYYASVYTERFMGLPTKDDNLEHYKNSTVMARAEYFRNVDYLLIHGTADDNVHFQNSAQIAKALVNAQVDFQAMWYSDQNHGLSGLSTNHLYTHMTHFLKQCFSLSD
Test: Surface plasmon resonance (Biacore T100) on immobilized rhuSeprase
Type: binding
Conditions: for kon: read-out: ka (1/Ms)

Compound	offrate, times slower compared to MC-FA-012	kon [M⁻¹ s⁻¹]	kd [s⁻¹]
CC[C@H](C)[C@@H]1NC(=O)[C@@H]2CSSC[C@H](NC(=O)[C@H](C)NC(=O)CNC(=O)[C@H](CO)NC(=O)CNC(=O)CON=CC(=O)NCCCC[C@H](NC(=O)[C@H](CO)NC(=O)CNC(=O)[C@H](CO)NC(=O)CNC(=O)[C@H](CCCCNC(=O)C=NOCC(=O)NCC(=O)N[C@@H](CO)C(=O)NCC(=O)N[C@@H](C)C(=O)N[C@H]3CSSC[C@@H]4NC(=O)[C@H](CCCNC(=N)N)NC(=O)CNC(=O)[C@@H]5CCCN5C(=O)[C@@H]5CSSC[C@@H](C(=O)NCC(=O)O)NC(=O)[C@H](Cc6ccc(O)cc6)NC(=O)CNC(=O)[C@H](CC(N)=O)NC(=O)CNC(=O)[C@H](CCCNC(=N)N)NC(=O)[C@H](CSSC[C@H](NC(=O)[C@H](CC(=O)O)NC(=O)[C@@H]6CCCN6C(=O)CNC(=O)[C@H](CCCNC(=N)N)NC(=O)CNC(=O)[C@@H]6CCCN6C(=O)[C@H]([C@@H](C)O)NC(=O)[C@H](Cc6c[nH]c7ccccc67)NC(=O)[C@H](CC(N)=O)NC(=O)[C@H](CO)NC(=O)[C@H](Cc6ccc(O)cc6)NC(=O)[C@@H]6CCCN6C3=O)C(=O)N[C@@H](CCCNC(=N)N)C(=O)N[C@@H](CCCNC(=N)N)C(=O)N[C@@H](CC(=O)O)C(=O)N[C@@H](CO)C(=O)N[C@@H](CC(=O)O)C(=O)N5)NC(=O)[C@H]([C@@H](C)CC)NC4=O)NC(=O)[C@H](CO)NC(=O)CNC(=O)[C@H](CO)NC(=O)CNC(=O)[C@H](CCCCNC(=O)C=NOCC(=O)NCC(=O)N[C@@H](CO)C(=O)NCC(=O)N[C@@H](C)C(=O)N[C@H]3CSSC[C@@H]4NC(=O)[C@H](CCCNC(=N)N)NC(=O)CNC(=O)[C@@H]5CCCN5C(=O)[C@@H]5CSSC[C@@H](C(=O)NCC(=O)O)NC(=O)[C@H](Cc6ccc(O)cc6)NC(=O)CNC(=O)[C@H](CC(N)=O)NC(=O)CNC(=O)[C@H](CCCNC(=N)N)NC(=O)[C@H](CSSC[C@H](NC(=O)[C@H](CC(=O)O)NC(=O)[C@@H]6CCCN6C(=O)CNC(=O)[C@H](CCCNC(=N)N)NC(=O)CNC(=O)[C@@H]6CCCN6C(=O)[C@H]([C@@H](C)O)NC(=O)[C@H](Cc6c[nH]c7ccccc67)NC(=O)[C@H](CC(N)=O)NC(=O)[C@H](CO)NC(=O)[C@H](Cc6ccc(O)cc6)NC(=O)[C@@H]6CCCN6C3=O)C(=O)N[C@@H](CCCNC(=N)N)C(=O)N[C@@H](CCCNC(=N)N)C(=O)N[C@@H](CC(=O)O)C(=O)N[C@@H](CO)C(=O)N[C@@H](CC(=O)O)C(=O)N5)NC(=O)[C@H]([C@@H](C)CC)NC4=O)NC(=O)[C@H](CO)NC(=O)CNC(=O)[C@H](CO)NC(=O)CNC(=O)CN3CCN(CC(=O)O)CCN(CC(=O)O)CCN(CC(=O)O)CC3)C(=O)O)C(=O)N3CCC[C@H]3C(=O)N[C@@H](Cc3ccc(O)cc3)C(=O)N[C@@H](CO)C(=O)N[C@@H](CC(N)=O)C(=O)N[C@@H](Cc3c[nH]c4ccccc34)C(=O)N[C@@H]([C@@H](C)O)C(=O)N3CCC[C@H]3C(=O)NCC(=O)N[C@@H](CCCNC(=N)N)C(=O)NCC(=O)N3CCC[C@H]3C(=O)N[C@@H](CC(=O)O)C(=O)N[C@H]3CSSC[C@H](NC1=O)C(=O)N[C@@H](CCCNC(=N)N)C(=O)NCC(=O)N[C@@H](CC(N)=O)C(=O)NCC(=O)N[C@@H](Cc1ccc(O)cc1)C(=O)N[C@H](C(=O)NCC(=O)O)CSSC[C@H](NC(=O)[C@H](CC(=O)O)NC(=O)[C@H](CO)NC(=O)[C@H](CC(=O)O)NC(=O)[C@H](CCCNC(=N)N)NC(=O)[C@H](CCCNC(=N)N)NC3=O)C(=O)N1CCC[C@H]1C(=O)NCC(=O)N[C@@H](CCCNC(=N)N)C(=O)N2 (single isomer, unassigned) [DOTA-(MC-FA-012)3]	around 530 times	2.11e+07	
CC(C)C[C@@H]1NC(=O)[C@@H]2CSSC[C@@H](C(=O)NCC(=O)O)NC(=O)[C@H](Cc3ccccc3)NC(=O)CNC(=O)[C@H](CC(N)=O)NC(=O)[C@@H]3CCCN3C(=O)CNC(=O)[C@@H]3CSSC[C@H](NC(=O)[C@H](CC(=O)O)NC(=O)[C@@H]4CCCN4C(=O)CNC(=O)[C@H](CCCNC(=N)N)NC(=O)CNC(=O)[C@@H]4CCCN4C(=O)[C@H]([C@@H](C)O)NC(=O)[C@H](Cc4c[nH]c5ccccc45)NC(=O)[C@H](CC(N)=O)NC(=O)[C@H](CO)NC(=O)[C@H](Cc4ccc(O)cc4)NC(=O)[C@@H]4CCCN4C(=O)[C@@H](NC(=O)[C@H](C)NC(=O)CNC(=O)[C@H](CO)NC(=O)CN)CSSC[C@H](NC(=O)CNC(=O)[C@H](C)NC1=O)C(=O)N[C@@H](C(C)C)C(=O)N3)C(=O)N[C@@H](CO)C(=O)N[C@@H](CCC(N)=O)C(=O)N[C@@H](CC(=O)O)C(=O)N[C@@H](CO)C(=O)N[C@@H](CC(=O)O)C(=O)N2 [ET-FA-012] (H-GSGACPYSNWTPGRGPDCSQDSDCLAGCVCGPNGFCG-OH; disulfide 5-28, 18-30, 24-36; N-terminus and C-terminus assumed)		608000	0.8528
CC[C@H](C)[C@@H]1NC(=O)[C@@H]2CSSC[C@H](NC(=O)[C@H](C)NC(=O)CNC(=O)[C@H](CO)NC(=O)CN)C(=O)N3CCC[C@H]3C(=O)N[C@@H](Cc3ccc(O)cc3)C(=O)N[C@@H](CO)C(=O)N[C@@H](CCCNC(=N)N)C(=O)N[C@@H](Cc3c[nH]c4ccccc34)C(=O)N[C@@H](CCSC)C(=O)N3CCC[C@H]3C(=O)NCC(=O)N[C@@H](CCCNC(=N)N)C(=O)NCC(=O)N3CCC[C@H]3C(=O)N[C@@H](CO)C(=O)N[C@H]3CSSC[C@H](NC1=O)C(=O)N[C@@H](CCCNC(=N)N)C(=O)NCC(=O)N[C@@H](CC(N)=O)C(=O)NCC(=O)N[C@@H](Cc1ccc(O)cc1)C(=O)N[C@H](C(=O)NCC(=O)O)CSSC[C@H](NC(=O)[C@H](CC(=O)O)NC(=O)[C@H](CO)NC(=O)[C@H](CC(=O)O)NC(=O)[C@H](CCCNC(=N)N)NC(=O)[C@H](CCCNC(=N)N)NC3=O)C(=O)N1CCC[C@H]1C(=O)NCC(=O)N[C@@H](CCCNC(=N)N)C(=O)N2 [FA7-A05] (H-GSGACPYSRWMPGRGPSCRRDSDCPGRCICRGNGYCG-OH; disulfide 5-28, 18-30, 24-36; N-terminus and C-terminus assumed)		246000	0.05035
CC[C@H](C)[C@@H]1NC(=O)[C@@H]2CSSC[C@H](NC(=O)[C@H](C)NC(=O)CNC(=O)[C@H](CO)NC(=O)CN)C(=O)N3CCC[C@H]3C(=O)N[C@@H](Cc3ccc(O)cc3)C(=O)N[C@@H]([C@@H](C)O)C(=O)N[C@@H](CC(N)=O)C(=O)N[C@@H](Cc3c[nH]c4ccccc34)C(=O)N[C@@H](CCCNC(=N)N)C(=O)N3CCC[C@H]3C(=O)NCC(=O)N[C@@H](CCCNC(=N)N)C(=O)NCC(=O)N3CCC[C@H]3C(=O)N[C@@H](C)C(=O)N[C@H]3CSSC[C@H](NC1=O)C(=O)N[C@@H](CCCNC(=N)N)C(=O)NCC(=O)N[C@@H](CC(N)=O)C(=O)NCC(=O)N[C@@H](Cc1ccc(O)cc1)C(=O)N[C@H](C(=O)NCC(=O)O)CSSC[C@H](NC(=O)[C@H](CC(=O)O)NC(=O)[C@H](CO)NC(=O)[C@H](CC(=O)O)NC(=O)[C@H](CCCNC(=N)N)NC(=O)[C@H](CCCNC(=N)N)NC3=O)C(=O)N1CCC[C@H]1C(=O)NCC(=O)N[C@@H](CCCNC(=N)N)C(=O)N2 [FA8-C09] (H-GSGACPYTNWRPGRGPACRRDSDCPGRCICRGNGYCG-OH; disulfide 5-28, 18-30, 24-36; N-terminus and C-terminus assumed)		9.92e+06	2.935
